According to a melting point compilation (Tetko et al.; mined from patent text by program, amines drawn as free bases though some values may be those of a salt):

First: CCCc1nc2ccccc2c(=O)n1Cc1ccc(-c2ccccc2-c2nnn[nH]2)cc1
Second: CCN(CC)C(=O)c1cc(-c2ccc(OC)cc2)ccc1-c1ccccc1
The melting point of the first is higher: 171 to 172 °C for the first, 117 to 118 °C for the second.

First: OC/C(=C(\CO)c1ccccc1)c1ccccc1
Second: O=C(OCC1CCC(COC(=O)c2ccccc2)CC1)c1ccccc1 (stereo not drawn)
The melting point of the first is lower: 79 °C for the first, 111 to 113 °C for the second.

First: N#Cc1ccc(NCCCN2C3CCC2CNC3)cc1
Second: CCOC(=O)c1nc2scc(COCc3ccc(C#N)cc3)c2c(=O)[nH]1
The melting point of the first is lower: 44 to 46 °C for the first, 236 to 237 °C for the second.

First: C=C(C(=O)c1ccc(OCC(=O)O)c(Cl)c1Cl)C(C)(C)C
Second: CC(C)(C)OC(=O)[C@H](O)CCc1ccc([N+](=O)[O-])cc1
The melting point of the first is higher: 160 to 162 °C for the first, 41 to 42 °C for the second.

First: COc1cc(OC)cc(-c2nc(C)nn2-c2ccc(S(N)(=O)=O)cc2)c1
Second: COc1ccc(Nc2nc(-c3ccc4scnc4c3)cn3ccnc23)cc1OC
The melting point of the first is higher: 207 to 208 °C for the first, 179 to 181 °C for the second.

First: COc1cc(C(=O)N(C)C)ccc1OCCCN1CCC(c2noc3cc(F)ccc23)CC1
Second: CCCN(c1ccccc1)C1CCN(CCOc2c(C)cccc2C)CC1
The melting point of the first is higher: 126 to 127 °C for the first, 82 °C for the second.

Compared with `CCC12CC(Cl)C3C4CCC(=O)C=C4CCC3C1C(O)CC2=O` (stereo not drawn), `O=C1Nc2cccc(I)c2C(=O)N2CCC[C@@H]12` is higher in melting point: 169 to 170 °C for the first, 212 to 215 °C for the second.

First: NC(=O)C1CCC2(CC1)OCCO2
Second: CC(=O)NC1CCN(c2cccc(Cl)n2)CC1
The melting point of the first is higher: 167 to 170 °C for the first, 153 to 155 °C for the second.

First: CC1(C)Cn2c(nc3c(N)nc4ccccc4c32)CN1S(C)(=O)=O
Second: O=S(=O)(Cc1ccccc1Cl)c1nnc(C(F)(F)F)s1
The melting point of the first is higher: 227 to 228 °C for the first, 103 °C for the second.

Compared with `CNc1cc(CC(C#N)=CNc2ccccc2)cc(N(C)C)c1Cl`, `Cc1ccc(CN2C(=O)[C@@H](NC(=O)Cc3ccccc3)[C@H]2CO)c(C)c1` (relative stereo) is lower in melting point: 173 to 174 °C for the first, 152 to 154 °C for the second.

Compared with `CCOC(=O)c1cncc(C(=O)NC(C)c2ccccc2)c1` (stereo not drawn), `OC(CSC(=S)Nc1ccc(Cl)cn1)c1ccccc1` (stereo not drawn) is lower in melting point: 159 to 161 °C for the first, 116 °C for the second.

First: O=C(O)CCC1OC(=O)C(O)=C1c1ccccc1 (stereo not drawn)
Second: CNC(=O)CC1(CC(=O)O)c2ccccc2C(=O)c2ccccc21
The melting point of the first is lower: 177 to 179 °C for the first, 238 to 239 °C for the second.

First: CCCCCCNC(=N)NC#N
Second: CCCCCCCC(=O)OC(C)OC1=C(C(=O)Nc2ccccn2)N(C)S(=O)(=O)c2ccccc21 (stereo not drawn)
The melting point of the first is higher: 103 to 105 °C for the first, 90 to 91 °C for the second.

First: CS(=O)c1ccc2c3c(cccc13)C(=O)N2 (stereo not drawn)
Second: CCC(=S)C1=C(C)NC2=C(C(=O)c3ccccc32)C1c1ccccc1[N+](=O)[O-] (stereo not drawn)
The melting point of the first is lower: 178 to 185 °C for the first, 221 °C for the second.

First: Cc1ccnc(NC(c2ccc([N+](=O)[O-])cc2)c2ccc3cccnc3c2O)n1 (stereo not drawn)
Second: N#CC(=Cc1ccc2[nH]ccc2c1)S(=O)(=O)c1ccc([N+](=O)[O-])cc1
The melting point of the first is lower: 136 to 145 °C for the first, 219 to 221 °C for the second.

Going from `CCCCC(CC)COc1cc(-c2ccccn2)nc(-c2ccccn2)c1` (stereo not drawn) to `CCN(CC)Cc1nn2cc(-c3ccccc3)nc2s1`, the melting point rises from 58.5 °C to 138 °C.

Compared with `Cc1cc(C)c(C(C(N)=O)C(N)=O)c(C)c1`, `CCOC(=O)Nc1ccc(OC)cc1C(C)=O` is lower in melting point: 177 to 179 °C for the first, 97 to 100 °C for the second.

First: N#Cc1nn(-c2c(Cl)cc(C(F)(F)F)cc2Cl)c(N)c1-c1ccoc1Cl
Second: COc1cc(Nc2c(C#N)cnc3cc(-c4ccc(CN5CCCCC5)cc4)sc23)c(Cl)cc1Cl
The melting point of the first is lower: 153 °C for the first, 218 to 220 °C for the second.

Compared with `O=c1oc(-c2ccccc2)cc(O)c1SCc1cccc(Oc2ccccc2)c1`, `CSc1ccc(Nc2nc(=O)cc(N)n2-c2ccccc2)cc1` is higher in melting point: 131 to 133 °C for the first, 133 to 135 °C for the second.

First: CCOc1ccc2c(c1)C(=O)N(c1ccc3c(ccn3C)c1)C2
Second: CCCOc1cc(OCCCc2cn(-c3ccc(C(F)(F)F)cn3)nc2OCC)ccc1CCC(=O)O
The melting point of the first is higher: 185 to 190 °C for the first, 126 to 127 °C for the second.

First: Fc1ccc(Nc2ncnc3[nH]c(-c4ccc(CCl)cc4)cc23)cc1Cl
Second: Fc1ccc(Nc2ncnc3cnc(N4CCC(CCCC5CCNCC5)CC4)nc23)cc1Cl
The melting point of the first is higher: over 300 °C for the first, 128 to 130 °C for the second.

Compared with `Nc1nc(=O)n(C(=S)Oc2ccccc2)cc1F`, `NC(=O)c1ncn2c(=O)n(Cc3ccccc3)nnc12` is higher in melting point: 113 to 116 °C for the first, 187 to 188 °C for the second.

Compared with `COc1ccc(C(=O)NC(=O)Nc2cc3c(cc2F)/C(=C/c2[nH]c(C)c(CCC(=O)O)c2C)C(=O)N3)c(F)c1`, `Cc1ccc(C(=O)NCc2ccc3c(c2)CN(C2CCC(=O)NC2=O)C3=O)cc1Cl` (stereo not drawn) is lower in melting point: over 300 °C for the first, 229 to 231 °C for the second.

First: COc1cc(OC)nc(Oc2ccc(N(C)C)nc2C(=O)O)n1
Second: CCCc1nn(C)c2c(=O)[nH]c(-c3cc(CCCN)ccc3OCC)nc12
The melting point of the first is higher: 195 to 198 °C for the first, 115 to 117 °C for the second.

First: Cc1cccc(C2C(C#N)=C(C(C)C)Nc3n[nH]cc32)c1[N+](=O)[O-] (stereo not drawn)
Second: Cc1cc2c(c(C)c1N)C(c1ccc(C(C)C)cc1)CS2 (stereo not drawn)
The melting point of the first is higher: 261 °C for the first, 121 to 122 °C for the second.

First: Cc1cnc(NCCCNc2ncc(Cc3ccc(C)nc3)c(=O)[nH]2)c(C)c1
Second: O=c1c(NCCCN(Cc2cccs2)c2ccccn2)c(NCc2ccncc2)c1=O
The melting point of the first is lower: 104 to 105 °C for the first, 189 to 192 °C for the second.

Compared with `Cc1sc2c(Br)c3ccccc3c(-c3ccc(O)c([N+](=O)[O-])c3)c2c1C`, `COC(=O)c1sc2c(c1N)c1ccccc1c(=O)n2-c1ccccc1Cl` is higher in melting point: 183 to 185 °C for the first, 244 to 246 °C for the second.

First: CCCCCC(=O)c1cn(S(=O)(=O)c2ccc(C)cc2)c2ccccc12
Second: CCN(CC)S(=O)(=O)c1cc(O)c(N=Nc2c(C)nn(CC)c2O)c2ccccc12
The melting point of the first is lower: 91 to 93 °C for the first, 174 to 175 °C for the second.

First: Ic1ccc(CCc2ccc(I)cc2)cc1
Second: Nc1ccc(CP2(=O)OCCO2)cc1
The melting point of the first is lower: 150 to 151 °C for the first, 183 to 184 °C for the second.

First: CC(C)(C)Cn1c(=O)c(=O)[nH]c2cc([N+](=O)[O-])c(N)cc21
Second: O=[N+]([O-])c1cc(S(=O)(=O)N(CCO)CCO)sc1Cl
The melting point of the first is higher: over 300 °C for the first, 100 °C for the second.

First: CC(C)COc1ccc(C=CC(=O)O)cc1
Second: CC(COc1ccc(C(N)=O)c(O)c1)NCC(O)COc1ccc(NS(C)(=O)=O)cc1 (stereo not drawn)
The melting point of the first is higher: 161 to 164 °C for the first, 147 to 150 °C for the second.

Compared with `O=C(NC(c1ccccc1)c1ccccc1)NS(=O)(=O)Cl`, `CC(=O)Oc1c2c(c3ccccc3c1OC(C)=O)Nc1ccccc1S2` is higher in melting point: 80 to 88 °C for the first, 206 to 207 °C for the second.

First: COc1ccc2nc(NC(=O)C(CC3CCCC3)c3ccc(S(=O)(=O)NCc4ccco4)cc3)sc2n1 (stereo not drawn)
Second: O=C1C(NCCN2CCCC2)=CC(=O)c2oc(-c3cccc(Br)c3)nc21
The melting point of the first is higher: 244 to 247 °C for the first, 169 to 170 °C for the second.

Compared with `CC1=C(C(=O)O)OCCO1`, `O=C(C=Cc1ccc2c(c1)OCO2)c1cccc(O)c1` is higher in melting point: 103 to 105 °C for the first, 188 to 189 °C for the second.

First: Cc1ccc2c(-c3cc(C(C)(C)C)c(O)c(C(C)(C)C)c3)nn(C)c2n1
Second: CCOc1ccc2c(C)c(CCCl)c(=O)oc2c1OCC
The melting point of the first is higher: 178 to 181 °C for the first, 89 to 90 °C for the second.

First: CCOC(=O)CCCCC(=O)c1[nH]c(=O)[nH]c1C
Second: CCCCOc1ccc(Oc2cc(=O)c3c(OCCCC)c(OC)c(OCCCC)cc3o2)cc1
The melting point of the first is higher: 170 to 172 °C for the first, 62 to 63 °C for the second.

In the case of `Oc1ccc(Br)cc1Cc1ncc[nH]1`, the melting point is reported as 163 to 169 °C.
